33 molecules from ChEMBL document CHEMBL2406911, “Structure guided design of a series of sphingosine kinase (SphK) inhibitors” (Bioorg Med Chem Lett, 2013) can be followed below.

In data set [1] the target is T1, Sphingosine kinase 2 (Homo sapiens, UniProt Q9NRA0).
T1 sequence (Q9NRA0 whole entry): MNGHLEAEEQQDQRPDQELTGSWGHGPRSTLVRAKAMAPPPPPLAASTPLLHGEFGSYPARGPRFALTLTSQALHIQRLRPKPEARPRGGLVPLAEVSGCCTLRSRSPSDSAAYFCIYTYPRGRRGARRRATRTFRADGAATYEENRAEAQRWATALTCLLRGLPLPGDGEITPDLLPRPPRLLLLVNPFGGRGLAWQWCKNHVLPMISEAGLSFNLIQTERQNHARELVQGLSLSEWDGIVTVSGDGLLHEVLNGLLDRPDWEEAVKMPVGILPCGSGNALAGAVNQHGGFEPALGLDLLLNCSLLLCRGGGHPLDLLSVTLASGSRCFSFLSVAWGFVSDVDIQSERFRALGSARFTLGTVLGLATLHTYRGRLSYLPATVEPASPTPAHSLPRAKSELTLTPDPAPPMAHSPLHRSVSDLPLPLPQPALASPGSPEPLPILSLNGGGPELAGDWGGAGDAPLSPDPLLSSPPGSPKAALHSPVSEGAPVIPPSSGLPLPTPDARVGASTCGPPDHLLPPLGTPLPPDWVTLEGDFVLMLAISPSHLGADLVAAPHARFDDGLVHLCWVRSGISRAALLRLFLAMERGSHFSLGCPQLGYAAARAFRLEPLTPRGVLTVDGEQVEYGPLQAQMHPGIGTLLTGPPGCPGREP
Description: Inhibition of purified human SphK2 assessed as inhibition of formation of [33P]-S1P after 50 mins by scintillation counting

The target of data set [2] is T2, Sphingosine kinase 1 (Homo sapiens, UniProt Q9NYA1).
T2 sequence (Q9NYA1 whole entry): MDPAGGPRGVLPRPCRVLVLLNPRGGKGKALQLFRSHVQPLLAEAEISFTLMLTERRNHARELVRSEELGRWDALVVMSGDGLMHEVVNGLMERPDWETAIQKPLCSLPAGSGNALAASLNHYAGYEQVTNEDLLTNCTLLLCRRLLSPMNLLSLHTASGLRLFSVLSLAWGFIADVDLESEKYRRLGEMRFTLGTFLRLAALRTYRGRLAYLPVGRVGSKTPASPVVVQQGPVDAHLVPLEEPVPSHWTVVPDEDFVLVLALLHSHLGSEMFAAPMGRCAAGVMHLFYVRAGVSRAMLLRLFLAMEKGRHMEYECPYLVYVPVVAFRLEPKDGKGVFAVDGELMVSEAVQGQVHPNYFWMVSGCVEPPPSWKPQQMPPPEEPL
Description: Inhibition of SphK1 in human WM266-4 cells assessed as inhibition of formation of [17C]-S1P formation after 20 mins by LC-MS analysis
The target in data set [3] is T2, Sphingosine kinase 1. The source holds these as a separate data set.
Description: Inhibition of purified human SphK1 assessed as inhibition of formation of [33P]-S1P after 50 mins by scintillation counting
Data set [4] is described as follows: Clearance in mouse at 5 mg/kg, po. It counts as ADME, organism-based. Also noted: dose 5 mg/kg, route oral. The note with it: in vivo.
The nature of data set [5]: Fraction unbound in human plasma by ultra-centrifugation method. The data set is classed as ADME, cell-free.
The target in data set [6] is Sphingosine kinase 1 (Mus musculus, UniProt Q8CI15). Put plainly: Inhibition of mouse SphK1.
Chain of Sphingosine kinase 1 (Mus musculus, UniProt Q8CI15) (Q8CI15 whole entry): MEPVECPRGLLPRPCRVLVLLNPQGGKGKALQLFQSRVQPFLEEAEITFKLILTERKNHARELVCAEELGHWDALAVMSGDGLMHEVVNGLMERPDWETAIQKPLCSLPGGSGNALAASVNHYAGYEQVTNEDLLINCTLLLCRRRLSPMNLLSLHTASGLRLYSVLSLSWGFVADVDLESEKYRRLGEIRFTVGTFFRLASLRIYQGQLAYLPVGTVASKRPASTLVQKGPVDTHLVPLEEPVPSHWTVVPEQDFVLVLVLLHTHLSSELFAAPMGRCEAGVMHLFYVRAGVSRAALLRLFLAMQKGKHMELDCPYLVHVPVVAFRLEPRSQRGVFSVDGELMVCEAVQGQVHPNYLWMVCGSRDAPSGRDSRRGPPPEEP
Data set [7] in a line: Mean residence time in rat at 0.5 mg/kg, iv. It counts as ADME, organism-based. Also noted: dose 0.5 mg/kg, route intravenous. The note with it: in vivo.
A short description of data set [8]: Volume of distribution at steady state in rat at 0.5 mg/kg, iv. It counts as ADME, organism-based. Also noted: dose 0.5 mg/kg, route intravenous. The note with it: in vivo, read-out: Vdss.
The nature of data set [9]: Mean residence time in mouse at 5 mg/kg, po. It counts as ADME, organism-based. The note with it: in vivo. Also noted: dose 5 mg/kg, route oral.
The nature of data set [10]: Clearance in rat at 0.5 mg/kg, iv. The data set is classed as ADME, organism-based. Also noted: dose 0.5 mg/kg, route intravenous. The note with it: in vivo.
Data set [11] is described as follows: Fraction unbound in rat plasma by ultra-centrifugation method. It counts as ADME, cell-free.
A short description of data set [12]: Oral bioavailability in mouse at 5 mg/kg. It counts as ADME, organism-based. Particulars: in vivo.
For data set [13], the target named is T3, Sphingosine kinase 2 (Mus musculus, UniProt Q9JIA7).
T3 sequence (Q9JIA7 whole entry): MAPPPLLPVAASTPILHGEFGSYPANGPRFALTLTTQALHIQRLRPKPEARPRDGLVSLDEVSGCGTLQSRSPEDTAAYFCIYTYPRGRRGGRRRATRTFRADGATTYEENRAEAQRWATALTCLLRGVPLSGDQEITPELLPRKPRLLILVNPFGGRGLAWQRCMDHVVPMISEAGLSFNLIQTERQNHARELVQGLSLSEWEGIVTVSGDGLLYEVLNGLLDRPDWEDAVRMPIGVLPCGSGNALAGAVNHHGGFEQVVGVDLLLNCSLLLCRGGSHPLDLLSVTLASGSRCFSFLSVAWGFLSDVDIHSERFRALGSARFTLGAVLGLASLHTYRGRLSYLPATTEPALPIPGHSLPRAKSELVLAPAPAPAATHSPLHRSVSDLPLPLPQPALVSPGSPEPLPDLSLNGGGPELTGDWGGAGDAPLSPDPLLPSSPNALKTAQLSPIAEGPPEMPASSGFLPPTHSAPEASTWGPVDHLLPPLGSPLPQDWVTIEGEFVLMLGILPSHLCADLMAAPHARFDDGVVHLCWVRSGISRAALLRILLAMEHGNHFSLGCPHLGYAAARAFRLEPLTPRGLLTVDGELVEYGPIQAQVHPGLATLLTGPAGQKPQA
Put plainly: Inhibition of mouse SphK2.

The term IC50 denotes the midpoint of a concentration-inhibition curve. What is called EC50 is the concentration giving half of the maximal effect. Low readings indicate a more potent agent, high ones a less potent agent. One may read the CL/F as clearance divided by bioavailability, as obtained after extravascular dosing. What is called fraction unbound is the share of the substance not bound to proteins or other matrix. The term MRT denotes a mean duration of stay, worked out from the concentration-time curve. For orientation: clearance means the rate of elimination divided by the concentration. A high value points to a high capacity for elimination. Usually bioavailability stands for dose-corrected exposure relative to a reference, in per cent. A low value points to poor availability. One may read the Ki as a dissociation constant, usually derived from enzyme kinetics or from competition with a known ligand. High values mean weaker binding, low ones tighter binding.

`O=S1(=O)CCN(CCc2ccc(Nc3nc(-c4ccc(Cl)c(Cl)c4)cs3)cc2)C(CO)C1` (configuration not stated): on Sphingosine kinase 2 [1], it took 3000 nM to reach half-maximal inhibition (IC50).

For the molecule `CCCCc1csc(Nc2ccc(CCN3CC[C@H](O)C[C@@H]3CO)cc2)n1`, at Sphingosine kinase 1 [2], the response was half-maximal at 370 nM (EC50). Besides, the IC50 was more than 5000 nM against Sphingosine kinase 2 [1] and 70 nM against Sphingosine kinase 1 [3].

The molecule `OC[C@H]1C[C@@H](O)CCN1CCc1ccc(Nc2nc(-c3ccc(C(F)(F)F)cc3)cs2)cc1` had a CL/F in [4] of 11.7 mL/min/kg. Further, the fraction unbound was found to be 0.04 in data set [5] and 0.03 in data set [11]. The same molecule returned an IC50 against Sphingosine kinase 1 [6] of 70 nM. For the same molecule, the MRT in [7] was found to be 12 h; in data set [9] it was 13 h. Also, the Vd in data set [8] was determined as 17 L/kg. In data set [10], this molecule had a clearance of 23.3 mL/min/kg. For the same molecule, the bioavailability in data set [12] worked out at 32%.

As for `OC[C@H]1C[C@@H](O)CCN1CCc1ccc(Nc2nc(-c3cccc(F)c3)cs2)cc1`, at Sphingosine kinase 2 [1], the half-maximal inhibitory concentration (IC50) was more than 5000 nM.

On Sphingosine kinase 2 [1], `OCC1CCN1CCc1ccc(Nc2nc(-c3ccc4ccccc4c3)cs2)cc1` (configuration not stated) returned a half-inhibitory concentration (IC50) of 2500 nM.

Consider `OC[C@@H]1CCCCN1CCc1ccc(Nc2nc(-c3ccc4ccccc4c3)cs2)cc1`, for which half-maximal inhibition on Sphingosine kinase 1 [3] (IC50) was put at 1100 nM.

For `OC[C@H]1CCCN1CCc1ccc(Nc2nc(-c3ccc4ccccc4c3)cs2)cc1`, the IC50 amounted to 2700 nM on Sphingosine kinase 2 [1] and 580 nM against Sphingosine kinase 1 [3].

`CCCCCCCCCCCCc1ccc(C(=O)NC2(C(=N)N)CC2)cc1`: the Ki turned out to be 500 nM on Sphingosine kinase 2 [1] and 200 nM at Sphingosine kinase 1 [3].

Take `Cc1ccc(-c2csc(Nc3ccc(CCN4CC[C@H](O)C[C@@H]4CO)cc3)n2)cc1`: the IC50 on Sphingosine kinase 1 [3] stood at 7 nM.

As to `OC[C@H]1C[C@@H](O)CCN1CCc1ccc(Nc2nc(-c3cccc(C(F)(F)F)c3F)cs2)cc1`, at Sphingosine kinase 1 [2], the response was half-maximal at 250 nM (EC50). Besides, it took 5 nM to reach half-maximal inhibition at Sphingosine kinase 1 [3] (IC50).

`COC[C@H]1CCCN1CCc1ccc(Nc2nc(-c3ccc4ccccc4c3)cs2)cc1` displayed a concentration for half-maximal inhibition (IC50) on Sphingosine kinase 2 [1] of 5700 nM.

As to `CCCCc1ccc(/C=C/[C@H](O)[C@@H](CO)NC)cc1`, the Ki at Sphingosine kinase 2 [1] was more than 100000 nM; at Sphingosine kinase 1 [3], 10000 nM.

Turning to `OC[C@H]1CCCCN1CCc1ccc(Nc2nc(-c3ccc(Cl)cc3)cs2)cc1`, at Sphingosine kinase 1 [3], the concentration for half-maximal inhibition (IC50) is 80 nM.

On Sphingosine kinase 1 [2], `OC[C@H]1C[C@@H](O)CCN1CCc1ccc(Nc2nc(C3CCCC3)cs2)cc1` gave an EC50 of 850 nM. The IC50 on Sphingosine kinase 2 [1] is more than 5000 nM; against Sphingosine kinase 1 [3], 130 nM.

The molecule `OCC1CCCCN1CCc1ccc(Nc2nc(-c3ccc4ccccc4c3)cs2)cc1` (configuration not stated) showed an IC50 against Sphingosine kinase 1 [3] of 140 nM.

Take `OC[C@H]1CCCCN1CCc1ccc(Nc2nc(-c3cccc(Cl)c3)cs2)cc1`: the IC50 on Sphingosine kinase 1 [3] amounted to 270 nM.

Turning to `OC[C@H]1C[C@H](O)CN1CCc1ccc(Nc2nc(-c3ccc(Cl)c(Cl)c3)cs2)cc1`, on Sphingosine kinase 2 [1], the half-inhibitory concentration (IC50) was determined as 250 nM. Besides, the Vd in data set [8] is more than 100 L/kg. This molecule also came in with a clearance in data set [10] of more than 233 mL/min/kg.

For `OC[C@H]1C[C@@H](O)CN1CCc1ccc(Nc2nc(-c3ccc(Cl)c(Cl)c3)cs2)cc1`, 90 nM corresponded to half-maximal inhibition against Sphingosine kinase 2 [1] (IC50). The Vd in data set [8] was more than 100 L/kg. In data set [10], this molecule came in with a clearance of more than 233 mL/min/kg.

For `OC[C@H]1C[C@@H](O)CCN1CCc1ccc(Nc2nc(-c3ccc(Cl)cc3)cs2)cc1`, on Sphingosine kinase 1 [2], a half-maximal response (EC50) required 130 nM. The IC50 against Sphingosine kinase 1 [3] was determined as 8 nM.

For the molecule `OC[C@@H]1CCCN1CCc1ccc(Nc2nc(-c3ccc4ccccc4c3)cs2)cc1`, the IC50 was 2500 nM against Sphingosine kinase 2 [1] and 990 nM at Sphingosine kinase 1 [3].

Molecule `OC[C@H]1CCCCN1CCc1ccc(Nc2nc(-c3ccc4ccccc4c3)cs2)cc1` registered a half-maximal inhibitory concentration (IC50) against Sphingosine kinase 1 [3] of 80 nM.

For the molecule `N=C(N)[C@@H]1CCCN1C(=O)c1ccc(-c2nc(-c3cccc(CCC4CCCCC4)c3)co2)cc1`, the values for the Ki on Sphingosine kinase 2 [1] and on Sphingosine kinase 1 [3] were 4200 nM and 50 nM, respectively.

On to `OC[C@H]1C[C@@H](O)CCN1CCCc1ccc(Nc2nc(-c3ccc(Cl)c(Cl)c3)cs2)cc1`, for which the half-maximal inhibitory concentration (IC50) against Sphingosine kinase 2 [1] is more than 10000 nM; against Sphingosine kinase 1 [3], 2500 nM.

As to `OC[C@H]1C[C@@H](O)CCN1CCc1ccc(Nc2nc(-c3ccc(Cl)cc3Cl)cs2)cc1`, the IC50 was more than 10000 nM against Sphingosine kinase 2 [13] and 20 nM at Sphingosine kinase 1 [6]. Also, the fraction unbound in data set [5] worked out at 0.02; in data set [11], 0.01. This molecule gave an MRT in data set [7] of 14 h. In addition, the Vd in data set [8] turned out to be 18 L/kg. In [10], this molecule had a clearance of 21.7 mL/min/kg.

`CC(C)(C)c1csc(Nc2ccc(CCN3CC[C@H](O)C[C@@H]3CO)cc2)n1`: the concentration for half-maximal inhibition (IC50) on Sphingosine kinase 2 [1] was more than 10000 nM; against Sphingosine kinase 1 [3], more than 5000 nM.

Regarding `OC[C@H]1C[C@@H](O)CCN1CCc1ccc(Nc2nc(-c3ccccc3)cs2)cc1`, the concentration for a half-maximal effect (EC50) at Sphingosine kinase 1 [2] is 310 nM. The molecule also had a half-maximal inhibitory concentration (IC50) against Sphingosine kinase 1 [3] of 70 nM.

As for `OC[C@H]1C[C@@H](O)CN1CCCc1ccc(Nc2nc(-c3ccc(Cl)c(Cl)c3)cs2)cc1`, the 50% inhibitory concentration (IC50) at Sphingosine kinase 2 [1] is 270 nM; on Sphingosine kinase 1 [3], 30 nM. In data set [8], the Vd is more than 100 L/kg. In data set [10], this molecule came in with a clearance of more than 233 mL/min/kg.

On Sphingosine kinase 2 [1], `CN1CCN(CCc2ccc(Nc3nc(-c4ccc5ccccc5c4)cs3)cc2)C(CO)C1` (configuration not stated) yielded an IC50 of 1700 nM.

`OCC1COCCN1CCc1ccc(Nc2nc(-c3ccc4ccccc4c3)cs2)cc1` (configuration not stated): at Sphingosine kinase 2 [1], the IC50 was more than 10000 nM.

Consider `N#Cc1ccc(-c2csc(Nc3ccc(CCN4CCCC[C@@H]4CO)cc3)n2)cc1`, for which the concentration for half-maximal inhibition (IC50) at Sphingosine kinase 1 [3] was more than 10000 nM.

As for `OCCC1CCCCN1CCc1ccc(Nc2nc(-c3ccc4ccccc4c3)cs2)cc1` (configuration not stated), the concentration for half-maximal inhibition (IC50) against Sphingosine kinase 2 [1] and on Sphingosine kinase 1 [3] was more than 10000 nM throughout.

`OCC1CCCCCN1CCc1ccc(Nc2nc(-c3ccc4ccccc4c3)cs2)cc1` (configuration not stated) returned a half-inhibitory concentration (IC50) at Sphingosine kinase 2 [1] of more than 10000 nM.

In the case of `OC[C@H]1C[C@H](O)CN1CCCc1ccc(Nc2nc(-c3ccc(Cl)c(Cl)c3)cs2)cc1`, the results for the IC50 on Sphingosine kinase 2 [1] and against Sphingosine kinase 1 [3] were 90 nM and 30 nM, respectively. Further, the Vd in data set [8] is more than 100 L/kg. The molecule also returned a clearance in [10] of more than 233 mL/min/kg.
